# Results reported in US8722723B2, “Aromatic amide derivative” (Research Foundation Itsuu Laboratory, priority 2008, dated 2014).
# Assays:
# luciferase (Luc) = test: Reporter assay: Hela cells transfected with human RORα1 expression vector and luciferase (Luc) reporter vector; Luc activity corrected with β-Gal activity; assay type: cell-based, firefly; parameters: key: β-Gal-corrected Luc activity; smaller = inhibition, larger = promotion; conditions: human RORα1 expression vector, rev-DR2/TK-Luc reporter, about 1 day, smaller number = inhibitory, larger = promoting
# Protocol: The reporter assay was used, in which Hela cells transfected with each of a pcDNA3 vector incorporated with the human RORα1 so that the gene can be expressed in animal cells as an expression vector, and a pGL3 promoter vector of which SV40 promoter was replaced with TK promoter as a luciferase expression reporter vector were used.
# The Hela cells were placed at a density of 2×10^4 cells/0.1 mL/well on a 96-well cell culture plate (FALCON) by using 10% FBS-DMEM. On the next day, the human RORα1 expression vector, the reporter vector incorporated with 3 copies of rev-DR2 sequences and the HSV thymidine kinase promoter at a position upstream from the luciferase (Luc) gene, and a β-galactosidase (β-Gal) expression vector for control were introduced into the cells by using a transfection reagent (Fugene6, Roche). On the next day, the medium was replaced with 5% FBS-DMEM containing a test compound diluted at a prescribed concentration, after about 1 day, the cell supernatant was removed, then the cells were lysed (Passive Lysis buffer, Promega), the Luc substrate (PicaGene, Toyo Ink) was added to a part of the lysed cells, and the activity of produced Luc was measured as luminescence intensity. Further, the β-Gal activity was measured as intensity of fluorescence generated when 4-methylumbelliferyl β-D-galactoside was added as a substrate, and the activity of Luc corrected for the transfection efficiency with the β-Gal activity was used as the index for evaluation. A smaller number indicates inhibitory action, and a larger number indicates promoting action.
melting point [°C],Compound,activity of Luc corrected for the transfection efficiency with the β-Gal activity (luciferase (Luc); test compound 0.01 μM),activity of Luc corrected for the transfection efficiency with the β-Gal activity (luciferase (Luc); test compound 0.1 μM),activity of Luc corrected for the transfection efficiency with the β-Gal activity (luciferase (Luc); test compound 1 μM),activity of Luc corrected for the transfection efficiency with the β-Gal activity (luciferase (Luc); test compound 10 μM)
184 to 185,"CCOC(=O)C=Cc1ccc(N2Cc3ccccc3C2=O)cc1 [Compound 23, 3-[4-(1-oxo-1,3-dihydro-isoindol-2-yl)-phenyl]-acrylic acid ethyl ester]",0.8,0.9,0.6,0.5
133 to 134,"CCCCCCCc1ccc(N2Cc3cc(N(C)C)ccc3C2=O)cc1 [Compound 7, 5-dimethylamino-2-(4-n-heptyl-phenyl)-isoindol-1-one]",1.0,1.1,1.1,1.1
152 to 153,"Cc1ccc([N+](=O)[O-])c(C(=O)Nc2ccc(CCCC(=O)O)cc2)c1 [Compound 40, 4-[4-(5-methyl-2-nitro-benzoylamino)-phenyl]-butyric acid]",0.8,0.9,0.8,0.8
